Reference: patent US20030177531A1, “Regulating metabolism by modifying the level of trehalose-6-phosphate by inhibiting endogenous trehalase levels” (Mogen International N.V., priority 1997, published 2003)

Tests used:
trehalase activity = test: Trehalose accumulation in potato microtubers induced on medium with Validamycin A; assay type: cell-based, Solanum tuberosum cv. Kardal; settings: for Trehalose (% fresh weight), +Validamycin A: 10^−3M Validamycin A
Protocol: Stem segments of in vitro potato plants harbouring an auxiliary meristem were transferred to micro-tuber inducing medium. Micro-tuber inducing medium contains 1×MS-salts supplemented with R3 vitamins, 0.5 g/l MES (final pH=5.8, adjusted with KOH) and solidified with 8 g/l Daichin agar, 60 g/l sucrose and 2.5 mg/l kinetin. After 3 to 5 weeks of growth in the dark at 24° C., micro-tubers were formed.
Validamycin A was isolated from Solacol, a commercial agricultural formulation (Takeda Chem. Indust., Tokyo) as described by Kendall et al. (1990) Phytochemistry 29, 2525. The procedure involves ion-exchange chromatography (QAE-Sephadex A-25 (Pharmacia), bed vol. 10 ml, equilibration buffer 0.2 mM Na-Pi pH 7) from a 3% agricultural formulation of Solacol. Loading 1 ml of Solacol on the column and eluting with water in 7 fractions, practically all Validamycin was recovered in fraction 4. Based on a 100% recovery, using this procedure, the concentration of Validamycin A was adjusted to 1.10^−3M in MS-medium, for use in trehalose accumulation tests. Alternatively, Validamycin A and B may be purified directly from Streptomyces hygroscopicus var. limoneus, as described by Iwasa et al. (1971) J. Antibiot. 24, 119, the content of which is incorporated herein by reference.
Carbohydrates were determined quantitatively by anion exchange chromatography with pulsed electrochemical detection. Extracts were prepared by extracting homogenized frozen material with 80% EtOH. After extraction for 15 minutes at room temperature, the soluble fraction is evaporated and dissolved in distilled water. Samples (25 μl) were analyzed on a Dionex DX-300 liquid chromatograph equipped with a 4×250 mm Dionex 35391 carbopac PA-1 column and a 4×50 mm Dionex 43096 carbopac PA-1 precolumn. Elution was with 100 mM NaOH at 1 ml/min followed by a NaAc gradient. Sugars were detected with a pulsed electrochemical detector (Dionex, PED). Commercially available carbohydrates (Sigma) were used as a standard.
Transgenic potato plants were generated harbouring the otsA gene driven by the potato tuber-specific patatin promoter (pMOG845). Potato Solanum tuberosum cv. Kardal tuber discs were transformed with Agrobacterium tumefaciens EHA105 harbouring the binary vector pMOG845. […] All plants obtained were phenotypically indistinguishable from wild type plants. […] The presence of small amounts of trehalose in wild-type plants indicates the presence of a functional trehalose biosynthetic pathway.

[1] = system: α- or β-glycohydrolase activity; settings: except for trehalase; cited from earlier work

## OCC1=C[C@H](N[C@H]2C[C@H](CO)[C@@H](O[C@@H]3O[C@H](CO)[C@@H](O)[C@H](O)[C@H]3O)[C@H](O)[C@H]2O)[C@H](O)[C@@H](O)[C@@H]1O [Validamycin A, 1,5,6-trideoxy-3-o-β-D-glucopyranosyl-5-(hydroxymethyl)-1-[[4,5,6-trihydroxy-3-(hydroxymenthyl)-2-cyclohexen-1-yl]amino]-D-chiro-inositol]
Trehalase activity; microtuber-inducing medium with 10^−3M Validamycin A, transgenic pMOG845 and wild-type plants
  Trehalose level in microtubers versus medium without Validamycin A: elevated levels of trehalose
Trehalase activity; microtubers of transgenic line 845-2 (pat-TPS)
  Trehalose (% fresh weight), +Validamycin A: 0.016 % fresh weight
Trehalase activity; microtubers of transgenic line 845-8 (pat-TPS)
  Trehalose (% fresh weight), +Validamycin A: 0.051 % fresh weight
Trehalase activity; microtubers of transgenic line 845-11 (pat-TPS)
  Trehalose (% fresh weight), +Validamycin A: 0.015 % fresh weight
Trehalase activity; microtubers of transgenic line 845-13 (pat-TPS)
  Trehalose (% fresh weight), +Validamycin A: 0.011 % fresh weight
Trehalase activity; microtubers of transgenic line 845-22 (pat-TPS)
  Trehalose (% fresh weight), +Validamycin A: 0.112 % fresh weight
Trehalase activity; microtubers of transgenic line 845-25 (pat-TPS)
  Trehalose (% fresh weight), +Validamycin A: 0.002 % fresh weight
Trehalase activity; microtubers of transgenic line 845-28 (pat-TPS)
  Trehalose (% fresh weight), +Validamycin A: 0.109 % fresh weight
Trehalase activity; microtubers of wild-type Kardal
  Trehalose (% fresh weight), +Validamycin A: 0.001 % fresh weight
[1]
  Inhibition of α- or β-glycohydrolase activity other than trehalase: does not significantly inhibit
